Measured values from ChEMBL document CHEMBL5257022, “An integrated overview on pyrrolizines as potential anti-inflammatory, analgesic and antipyretic agents” (Eur J Med Chem, 2016).

Experiments:
[1] = target: T1, Polyunsaturated fatty acid 5-lipoxygenase (Homo sapiens, UniProt P09917); test: Inhibition of 5-LOX (unknown origin)
T1 sequence (P09917 whole entry): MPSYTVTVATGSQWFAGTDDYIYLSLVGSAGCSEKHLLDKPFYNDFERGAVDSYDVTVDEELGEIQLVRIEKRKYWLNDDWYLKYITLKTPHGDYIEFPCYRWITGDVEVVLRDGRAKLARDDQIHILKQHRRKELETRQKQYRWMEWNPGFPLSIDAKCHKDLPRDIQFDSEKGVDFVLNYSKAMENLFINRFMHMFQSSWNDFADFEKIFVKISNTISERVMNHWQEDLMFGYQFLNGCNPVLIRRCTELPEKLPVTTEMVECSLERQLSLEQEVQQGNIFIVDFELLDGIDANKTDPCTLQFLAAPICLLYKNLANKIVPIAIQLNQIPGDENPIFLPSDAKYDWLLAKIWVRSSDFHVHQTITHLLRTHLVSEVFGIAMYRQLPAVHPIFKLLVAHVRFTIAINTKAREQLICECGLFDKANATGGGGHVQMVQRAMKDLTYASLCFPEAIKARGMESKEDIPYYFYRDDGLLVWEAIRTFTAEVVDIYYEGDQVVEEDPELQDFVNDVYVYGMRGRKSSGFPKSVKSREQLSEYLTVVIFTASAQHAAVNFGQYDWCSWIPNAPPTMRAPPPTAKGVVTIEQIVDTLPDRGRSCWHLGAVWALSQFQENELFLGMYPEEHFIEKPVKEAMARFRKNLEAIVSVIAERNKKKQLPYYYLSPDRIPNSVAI

[2] = target: T2, Prostaglandin G/H synthase 1 (Bos taurus) (UniProt O62664); test: Inhibition of COX1 in bovine thrombocyte at 10 uM relative to control
T2 sequence (whole entry): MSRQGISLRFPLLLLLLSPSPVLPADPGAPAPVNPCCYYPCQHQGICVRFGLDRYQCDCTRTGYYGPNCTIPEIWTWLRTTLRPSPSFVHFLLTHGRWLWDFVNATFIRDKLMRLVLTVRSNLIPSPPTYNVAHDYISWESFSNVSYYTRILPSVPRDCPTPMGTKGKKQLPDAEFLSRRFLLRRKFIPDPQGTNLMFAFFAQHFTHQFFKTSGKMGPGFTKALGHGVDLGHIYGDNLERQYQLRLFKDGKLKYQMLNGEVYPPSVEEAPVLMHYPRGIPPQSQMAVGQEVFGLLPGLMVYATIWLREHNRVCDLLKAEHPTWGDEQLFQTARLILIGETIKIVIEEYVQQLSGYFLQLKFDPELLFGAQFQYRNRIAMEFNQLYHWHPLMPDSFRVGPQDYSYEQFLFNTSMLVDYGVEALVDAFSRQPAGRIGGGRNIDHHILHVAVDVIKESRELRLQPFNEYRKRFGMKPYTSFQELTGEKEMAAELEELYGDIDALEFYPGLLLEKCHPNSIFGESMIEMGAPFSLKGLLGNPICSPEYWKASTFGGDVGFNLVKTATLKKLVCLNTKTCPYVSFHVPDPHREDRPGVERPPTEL

[3] = Toxicity in gastric mucosa of rat assessed as ulcer index at 400 mg/kg; format: organism-based; details: in vivo
[4] = Drug excretion in human urine assessed as glucuronide conjugate level; format: ADME
[5] = Drug excretion in human urine assessed as 4-hydroxy keto ro lac level; format: ADME
[6] = Drug excretion in human urine assessed as keto ro lac level; format: ADME
Mus musculus [7] = test: Analgesic activity in ddY mouse assessed as inhibition of acetic acid induced writhing at 30 mg/kg, po for 30 mins followed by acetic acid injection and measured after 5 to 10 mins; format: functional; parameters: scale not given: the % may be the effect or the level left; details: time 35-40 min
Rattus norvegicus [8] = test: Antiinflammatory activity against carrageenan-induced paw edema in Wistar rat assessed as inhibition of edema at 30 mg/kg, po for 1 hr prior to carrageenan induction; format: functional
Rattus norvegicus [9] = test: Antiinflammatory activity in rat assessed as inhibition of paw edema; format: functional
[10] = Gastrointestinal toxicity in rat assessed as ulcer index at 20 mg/kg, po; format: organism-based; details: in vivo
[11] = target: T3, Prostaglandin G/H synthase 1 (Homo sapiens, UniProt P23219); test: Inhibition of human COX1
T3 sequence (P23219 whole entry): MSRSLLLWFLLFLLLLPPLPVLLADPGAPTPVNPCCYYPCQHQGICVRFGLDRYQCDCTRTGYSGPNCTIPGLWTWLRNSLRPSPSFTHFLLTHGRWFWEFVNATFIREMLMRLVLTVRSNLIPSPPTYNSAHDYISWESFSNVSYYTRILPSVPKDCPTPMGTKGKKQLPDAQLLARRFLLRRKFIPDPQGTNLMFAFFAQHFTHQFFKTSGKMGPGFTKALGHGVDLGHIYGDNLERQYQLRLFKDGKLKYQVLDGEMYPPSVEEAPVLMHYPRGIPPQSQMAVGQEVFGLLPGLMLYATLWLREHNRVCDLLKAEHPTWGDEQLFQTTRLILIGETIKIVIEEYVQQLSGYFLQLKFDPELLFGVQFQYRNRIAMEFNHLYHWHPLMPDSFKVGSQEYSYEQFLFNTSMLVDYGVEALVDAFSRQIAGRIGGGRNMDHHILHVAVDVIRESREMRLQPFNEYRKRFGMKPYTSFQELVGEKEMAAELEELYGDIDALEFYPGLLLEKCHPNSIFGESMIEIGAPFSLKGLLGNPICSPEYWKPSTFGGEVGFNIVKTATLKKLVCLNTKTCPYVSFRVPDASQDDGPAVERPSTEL

Mus musculus [12] = species on record: Mus musculus; test: Analgesic activity in mouse assessed as inhibition of acetic acid-induced writhing response relative to aspirin; format: functional
Rattus norvegicus [13] = test: Antiinflammatory activity in rat assessed as fold change in inhibition of paw edema relative to phenylbutazone; format: functional
Rattus norvegicus [14] = test: Antiinflammatory activity in carrageenan induced Sprague-Dawley rat assessed as reduction in edema formation after 3 hrs; format: functional; details: read-out: ID50 (the source's name)
[15] = target: T4, Prostaglandin G/H synthase 2 (Homo sapiens, UniProt P35354); test: Inhibition of human COX2
T4 sequence (P35354 whole entry): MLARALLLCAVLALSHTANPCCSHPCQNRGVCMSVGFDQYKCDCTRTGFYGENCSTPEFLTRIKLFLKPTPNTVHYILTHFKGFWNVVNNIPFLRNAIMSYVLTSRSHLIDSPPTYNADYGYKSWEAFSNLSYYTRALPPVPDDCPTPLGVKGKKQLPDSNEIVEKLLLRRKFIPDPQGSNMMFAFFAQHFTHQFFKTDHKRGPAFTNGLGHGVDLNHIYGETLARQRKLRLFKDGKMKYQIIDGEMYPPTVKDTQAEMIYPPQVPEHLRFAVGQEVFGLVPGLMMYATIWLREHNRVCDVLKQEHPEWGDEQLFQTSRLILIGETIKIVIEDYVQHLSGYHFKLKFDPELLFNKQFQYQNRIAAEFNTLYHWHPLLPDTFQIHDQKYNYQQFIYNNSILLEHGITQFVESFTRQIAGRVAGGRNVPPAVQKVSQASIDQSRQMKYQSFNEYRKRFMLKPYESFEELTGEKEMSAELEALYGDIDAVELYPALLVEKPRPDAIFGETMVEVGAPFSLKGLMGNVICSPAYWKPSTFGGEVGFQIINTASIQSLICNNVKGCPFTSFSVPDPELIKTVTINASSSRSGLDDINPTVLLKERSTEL

[16] = target: T4, Prostaglandin G/H synthase 2; test: Inhibition of COX2 (unknown origin)
[17] = target: T5, Polyunsaturated fatty acid 5-lipoxygenase (Homo sapiens) (UniProt P09917); test: Inhibition of 5-LOX in human PMNL at 10 uM relative to control; format: cell-based
T5 sequence (whole entry): T1 sequence (P09917 whole entry)

Oryctolagus cuniculus = species on record: Oryctolagus cuniculus; test: Inhibition of collagen-induced platelet aggregation in rabbit concha artery blood at 10 uM; format: functional
[18] = Toxicity in gastric mucosa of rat assessed as ulcer index at 10 mg/kg; format: organism-based; details: in vivo
[19] = target: T3, Prostaglandin G/H synthase 1; test: Inhibition of COX1 (unknown origin)
[20] = Toxicity in gastric mucosa of rat assessed as ulcer index at 200 mg/kg; format: organism-based; details: in vivo

c1ccc(-c2c(-c3ccco3)cn3c2CCC3)cc1
IC50 [1]: 10 µM | IP [2]: 20%

Cc1ccc(NCC2Cn3cccc3C2=O)cc1 (configuration not stated)
UI [3]: 0 | Drug excretion [4]: 28% | Drug excretion [5]: 12% | Drug excretion [6]: 60%

O=C(O)C1CCn2c1cc(-c1ccc(Cl)cc1)c2-c1ccc(Cl)cc1 (configuration not stated)
Activity (Mus musculus [7]): 81.3% | inhibition in vivo at 30 mg/kg (Rattus norvegicus [8]): 52.3%

O=C(Nc1ccccc1Cl)c1c2[nH]cnc(=O)c2c2n1CCC2
inhibition (INH) (Rattus norvegicus [9]): 30.3% | UI [10]: 15.1

N#Cc1c(N)c(C(=O)Nc2ccccc2Cl)n2c1CCC2
inhibition (INH) (Rattus norvegicus [9]): 36.1% | UI [10]: 9.2

O=C(c1ccccc1)c1ccc2n1CCC2C(=O)O (racemic) [KETOROLAC]
IC50 [11]: 1.23 µM | fold change (FC) (Mus musculus [12]): 350 | fold change (FC) (Rattus norvegicus [13]): 36 | ED50 (Rattus norvegicus [14]): 0.08 mg/kg | IC50 [15]: 3.5 µM

O=C(c1ccccc1)c1ccc2n1CC[C@@H]2C(=O)O
IC50 [11]: 0.46 µM | ED50 (Rattus norvegicus [14]): 0.02 mg/kg | IC50 [15]: 1.46 µM

CS(=O)(=O)Nc1ccc(-c2cn3c(c2-c2ccccc2)CCC3)cc1
IC50 [1]: 3.4 µM | IC50 [16]: 3.6 µM | IP [2]: 10%

CS(=O)(=O)Nc1ccc(-c2cn3c(c2-c2ccc(Cl)cc2)CCC3)cc1
IP [17]: 0% | IP [2]: 0%

COc1ccc(-c2c(-c3ccc(Cl)cc3)cc3n2CCC3C(=O)O)cc1 (configuration not stated)
Activity (Mus musculus [7]): 87.3% | inhibition in vivo at 30 mg/kg (Rattus norvegicus [8]): 48.2%

O=C(c1ccccc1)c1ccc2n1CC[C@H]2C(=O)O
IC50 [11]: > 100 µM | ED50 (Rattus norvegicus [14]): 4 mg/kg | IC50 [15]: > 100 µM

O=C(Nc1ccccc1)C1CCn2c1cc(-c1ccc(Cl)cc1)c2-c1ccc(Cl)cc1 (configuration not stated)
inhibition in vivo at 30 mg/kg (Rattus norvegicus [8]): 37.4% | inhibition at 10 µM (Oryctolagus cuniculus): 78%

Cc1ccc(-c2cn3c(c2-c2ccccc2)CCC3)s1
IP [17]: 0% | IC50 [16]: 1.8 µM | IP [2]: 0%

Brc1ccc(-c2cn3c(c2-c2ccccc2)CCC3)s1
IC50 [1]: 8.4 µM | IP [2]: 25%

COc1ccc2c(c1)c(CC(=O)O)c(C)n2C(=O)c1ccc(Cl)cc1 [INDOMETHACIN]
UI [18]: 14

O=C(O)/C=C/c1c(-c2ccc(CCc3ccccc3)cc2)c(-c2ccccc2)c2n1CCC2
IC50 [19]: 10 µM | IP [2]: 58%

CSc1ccc(-c2cn3c(c2-c2ccc(F)cc2)CCC3)cc1
IP [17]: 0% | IC50 [16]: 0.1 µM | IP [2]: 28%

CS(=O)(=O)c1ccc(-c2cn3c(c2-c2ccccc2)CCC3)cc1
IC50 [1]: 10 µM | IC50 [16]: 0.03 µM | IP [2]: 25%

Cc1ccccc1NC(=O)c1c(N)c(C#N)c2n1CCC2
inhibition (INH) (Rattus norvegicus [9]): 31.6% | UI [10]: 11.3

Cc1ccccc1NC(=O)c1c2[nH]cnc(=O)c2c2n1CCC2
inhibition (INH) (Rattus norvegicus [9]): 28.8% | UI [10]: 17.4

c1ccc(-c2c(-c3cccs3)cn3c2CCC3)cc1
IC50 [1]: 10 µM

CC(C)Cc1ccc(C(C)C(=O)O)cc1 (configuration not stated) [IBUPROFEN]
UI [20]: 13.3
